Measured values: paper PMC11411632 (RSC Advances, 2024)

Target: α-amylase
Assay: α-amylase inhibition, starch/DNSA colorimetric assay at […] nm
Type: biochemical

α-Amylase inhibition method IC50 value [µg/mL]	Structure (SMILES)
200.94	Cc1ccc(-c2nn(C(=O)c3ccncc3)cc2C(=O)O)cc1 [MPP, 3-(4-methylphenyl)-1-(pyridine-4-carbonyl)-1H-pyrazole-4-carboxylic acid]
122.17	O=C(O)c1cn(C(=O)c2ccncc2)nc1-c1ccccc1 [PPP, 3-phenyl-1-(pyridine-4-carbonyl)-1H-pyrazole-4-carboxylic acid]
